Laboratory results: patent publication US8273780B2, “Polycyclic antagonists of lysophosphatidic acid receptors” (Amira Pharmaceuticals, Inc., priority 2009, dated 2012)

Tests used:
Human LPA3 = molecular target: T1, Human LPA3 (Homo sapiens, UniProt Q9UBY5); experiment: LPA3 calcium flux assay; format: cell-based; details: CHO cells expressing human LPA3, 10 nM LPA; read-out: HLPA3 Ca Flux IC50
T1 construct: The full-length cDNA fragment for human LPA3 was obtained by PCR from the vector; expressed in transfected cells; cDNA from the Missouri S&T cDNA Resource Center
T1 sequence (Q9UBY5 1-353): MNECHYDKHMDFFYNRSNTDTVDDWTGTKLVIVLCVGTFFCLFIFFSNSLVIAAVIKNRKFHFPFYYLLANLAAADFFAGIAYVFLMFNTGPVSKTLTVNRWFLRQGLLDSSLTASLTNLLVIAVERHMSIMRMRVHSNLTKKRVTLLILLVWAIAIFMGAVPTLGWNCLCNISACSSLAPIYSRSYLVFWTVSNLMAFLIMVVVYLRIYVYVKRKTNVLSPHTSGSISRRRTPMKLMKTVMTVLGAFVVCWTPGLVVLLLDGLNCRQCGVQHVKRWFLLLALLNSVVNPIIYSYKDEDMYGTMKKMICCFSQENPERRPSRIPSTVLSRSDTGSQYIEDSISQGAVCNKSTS
Protocol: A vector containing the human LPA3 receptor cDNA was obtained from the Missouri S&T cDNA Resource Center (www.cdna.org). The full-length cDNA fragment for human LPA3 was obtained by PCR from the vector. The nucleotide sequence of the cloned human LPA3 was determined by sequencing and confirmed to be identical to the published human LPA3 sequence (NCBI accession number NM_012152). The cDNA was cloned into the pcDNA5/FRT expression plasmid and transfected in CHO cells using lipofectamine 2000 (Invitrogen Corp., USA). Clones stably expressing human LPA3 were selected using hygromycin and identified as cells that show Ca-influx in response to LPA.
(§1) Human LPA1 or LPA3 expressing CHO cells are seeded at 20,000-45,000 cells per well in a 96-well poly-D-lysine coated plate one or two days before the assay. Prior to the assay, the cells are washed once with PBS and then cultured in serum-free media overnight. On the day of the assay, a calcium indicator dye (Calcium 4, Molecular Devices) in assay buffer (HBSS with Ca^2+and Mg^2+ and containing 20 mM Hepes and 0.3% fatty-acid free human serum albumin) is added to each well and incubation continued for 1 hour at 37° C. 10 μl of test compounds in 2.5% DMSO are added to the cells and incubation continued at room temperature for 30 minutes. Cells are the stimulated by the addition of 10 nM LPA and intracellular Ca^2+ measured using the Flexstation 3 (Molecular Devices). IC50s are determined using Graphpad prism analysis of drug titration curves.

Human LPA1 = molecular target: T2, Human LPA1 (Homo sapiens, UniProt Q92633); experiment: LPA1 calcium flux assay; format: cell-based; details: CHO cells expressing human LPA1, 10 nM LPA; read-out: HLPA1 Ca Flux IC50
T2 construct: the full-length cDNA for human LPA1 was obtained by PCR of the reverse transcription reaction; expressed in transfected cells
T2 sequence (Q92633 whole entry): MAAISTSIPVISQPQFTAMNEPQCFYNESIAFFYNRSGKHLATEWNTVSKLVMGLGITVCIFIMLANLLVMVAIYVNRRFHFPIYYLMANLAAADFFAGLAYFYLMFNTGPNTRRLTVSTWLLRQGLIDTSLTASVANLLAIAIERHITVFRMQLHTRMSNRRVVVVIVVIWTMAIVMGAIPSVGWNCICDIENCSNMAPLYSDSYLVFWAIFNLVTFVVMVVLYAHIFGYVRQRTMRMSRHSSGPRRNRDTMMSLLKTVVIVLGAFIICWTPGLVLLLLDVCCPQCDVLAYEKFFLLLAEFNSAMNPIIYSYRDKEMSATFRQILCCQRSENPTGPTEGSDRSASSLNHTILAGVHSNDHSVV
Protocol: A 1.1 kb cDNA encoding the human LPA1 receptor was cloned from human lung. Human lung RNA (Clontech Laboratories, Inc. USA) was reverse transcribed using the RETROscript kit (Ambion, Inc.) and the full-length cDNA for human LPA1 was obtained by PCR of the reverse transcription reaction. The nucleotide sequence of the cloned human LPA1 was determined by sequencing and confirmed to be identical to the published human LPA1 sequence (An et al. Biochem. Biophys. Res. Commun. 231:619 (1997). The cDNA was cloned into the pcDNA5/FRT expression plasmid and transfected in CHO cells using lipofectamine 2000 (Invitrogen Corp., USA). Clones stably expressing human LPA1 were selected using hygromycin and identified as cells that show Ca-influx in response to LPA.
as §1

C57BL/6 mice = experiment: Mouse carbon tetrachloride (CCl4)-induced liver fibrosis model; format: in vivo; details: compared to the untreated group
Protocol: Female C57BL/6 mice (Harlan, 20-25 g) housed 4/cage are given free access to food and water and allowed to acclimate for at least 7 days prior to test initiation. After the habituation phase, mice receive CCl4 (1.0 ml/kg body weight) diluted in corn oil vehicle (100 μL volume) via i.p. injection twice a week for 8 weeks. (Higazi, A. A. et al., Clin Exp Immunol. 2008 April; 152(1):163-73. Epub 2008 Feb. 14.). Control mice receive an equivalent volume of corn oil vehicle only. Test compound or vehicle is delivered po, ip or sc daily. […] Liver tissue homogenates are analyzed for collagen levels using Sircol (Biocolor Ltd, UK). Fixed Liver tissue is stained using hematoxylin and eosin (H&E) and trichrome and liver fibrosis is determined by quantitative, computer-assisted densitometry of collagen in liver tissue sections using light microscopy. Plasma and liver tissue lysates are also analyzed for concentrations of inflammatory, pro-fibrotic and tissue injury biomarkers including transforming growth factor β1, hyaluronic acid, tissue inhibitor of metalloproteinase-1, matrix matelloproteinase-7, connective tissue growth factor and lactate dehydrogenase activity, using commercially available ELISA. The resulting data are plotted using Graphpad prism and statistical differences between groups determined.

## Cc1noc(-c2ccc(-c3ccc(C4(C(=O)O)CC4)cc3)cc2)c1NC(=O)O[C@H](C)c1ccccc1 [Compound 1, 1-{4′-[3-Methyl-4-((R)-1-phenyl-ethoxycarbonylamino)-isoxazol-5-yl]-biphenyl-4-yl}-cyclopropanecarboxylic acid]
Human LPA3
  IC50: 1000 to 10000 nM
Human LPA1
  IC50: < 300 nM
C57BL/6 mice
  collagen deposition in the liver: significantly reduced
  liver weight increase: significantly reduced
